Experimental data published in patent US5567693A, “Method for inhibiting angiogenesis, proliferation of endothelial or tumor cells and tumor growth” (American Cyanamid Company, priority 1994, dated 1996).
Structures can show the parent of a compound that is named as a salt. Where two headings read alike, the source gives them in different places.

What was measured:
Type in all cases: cell-based
Human Tumor cell lines = experiment: Antiproliferative activity in the panel of human tumor cell lines; conditions: for IC50: Homo sapiens, average over the 6 tumor cell lines
Procedure: (§1) The antiproliferative activity of the compounds of Formula I in an Adult Bovine Aortic Endothelial (ABAE) cell line and in Human Tumor cell lines is evaluated in three similar assays that measure growth inhibition. The assays are identified as follows:
(§2) PROTOCOL 1,2,and 3 are described in greater detail hereinbelow. In general, according to PROTOCOLS 1 and 2, the target ABAE and/or Human Tumor cells are exposed to the compounds of Formula I for 48 hours. PROTOCOL 3 exposes ABAE cells to the compounds for 4 days. A detailed description of the protocols is as follows:
(§3) The antiproliferative activity of the compounds of Formula I of the present invention is evaluated in a panel comprised of human tumor cell lines and an adult bovine aortic endothelial cell line (ABAE). The human tumor cell lines are from
(§4) All cell lines are maintained in log phase in RPMI 1640 media, supplemented with 5% fetal calf serum, penicillin/streptomycin and 2 mM L-glutamine. Cultures are renewed after 20 passages with cells from a fresh stock of batch-frozen early passage cells. Cell lines are routinely checked for mycoplasma contamination (Genprobe). In a laminar flow hood, cells (1-5×10^4) are plated into 96-well microtiter plates in a volume of 0.1 ml/well with a bulk microtiter dispenser (Denley). […] At this concentration, dimethylsulfoxide has no effect on cell growth. Compounds are added using a Tomtec dispenser which simultaneously dispenses from one 96-well plate, containing the drug dilutions, to the plates containing the cells. After two days of continuous drug exposure, 50% cold trichloroacetic acid (TCA) is added to 10% final concentration to fix the cells, and after 60 minutes at 4° C., the TCA is aspirated and the plates are washed 5 times with deionized water using a microtiter plate washer. The number of cells on the plate are quantitated using a protein dye-binding assay (Monks et al., 1991). A 0.4% solution of the dye, sulforhodamine B, in glacial acetic acid is added to the plates, and the plates are washed 5 times with 1% glacial acetic acid using the automatic plate washed. The bound stain is solubilized with 0.1 ml of 10 mM Tris base. The optical densities are read from an automatic spectrophotometric plate reader (Dynatech) directly to a main frame computer (VAX 8600).
(§5) Positive controls, that include standard chemotherapeutic drugs (i.e., Adriamycin, Cisplatin, etc.), are included in every experiment.
(§6) Background optical density measurements (complete media-cells, and complete media+drug-cells) are automatically subtracted from the appropriate control and test wells. Mean values and standard errors are determined from duplicate wells. A measure is also made of the optical density at time when the drugs are added. The number of cells after treatment (P), as % of control, is calculated for every concentration of drug, as follows: [formula] wherein: T is optical density measurement for treated cells after 48 hours;
(§7) C is optical density measurement for untreated cells after 48 hours;
(§8) Co is optical density measurement for cells at the time of drug addition.
(§9) IC50 of growth inhibition is calculated from the sets of P values using the RS-1 data package (BBN Software).
(§10) The antiproliferative activity of the compounds of Formula I is evaluated in a panel comprised of human tumor cell lines and an adult bovine aortic cell line (ABAE) as listed in PROTOCOL 1. This assay is a modification of PROTOCOL 1. The modifications include:
(§11) 1) each concentration for each compound is tested in a single well;
(§12) 2) compounds are tested at 20, 4, 0.8, 0.16 microgram/ml and additionally in some experiments at 100 and 0.32 microgram/ml;
(§13) 3) samples are pipetted into a 96-well plate for each of the cell lines by a Beckman Biomek 1000 SL robot;
(§14) 4) after fixing with TCA each well is washed with 0.35 ml distilled water twice, not five times;
(§15) 5) after staining with sulforhodamine B each well is washed 3 times, not five times; […]

A2780/DDP = experiment: Antiproliferative activity in human tumor cell lines: A2780/DDP (ovarian); conditions: PROTOCOL 1 and PROTOCOL 2, 48 hours
Procedure: (§16) The assays are identified as follows:
as §2, §3
(§17) Cultures are renewed after 20 passages with cells from a fresh stock of batch-frozen early passage cells. Cell lines are routinely checked for mycoplasma contamination (Genprobe). In a laminar flow hood, cells (1-5×10^4) are plated into 96-well microtiter plates in a volume of 0.1 ml/well with a bulk microtiter dispenser (Denley). […] Compounds are added using a Tomtec dispenser which simultaneously dispenses from one 96-well plate, containing the drug dilutions, to the plates containing the cells. After two days of continuous drug exposure, 50% cold trichloroacetic acid (TCA) is added to 10% final concentration to fix the cells, and after 60 minutes at 4° C., the TCA is aspirated and the plates are washed 5 times with deionized water using a microtiter plate washer. […] A 0.4% solution of the dye, sulforhodamine B, in […] is added to the plates, and the plates are washed 5 times with 1% glacial acetic acid using the automatic plate washed. The bound stain is solubilized with 0.1 ml of 10 mM Tris base. The optical densities are read from an automatic spectrophotometric plate reader (Dynatech) directly to a main frame computer (VAX 8600).
as §5, §6, §7, §8, §9, §10, §11, §12, §13, §14
(§18) 5) after staining with sulforhodamine B each well is washed 3 times, not five times;
(§19) 6) the growth inhibition (I) as % of control, is calculated using the RS-1 data package (BBN Software), for every concentration of drug, as follows: [formula] wherein: T is optical density measurement for treated cells after 48 hours;
(§20) 7) IC50 of growth inhibition is determined graphically from dose response curves, as is known in the art.

HTB 161 = experiment: Antiproliferative activity in human tumor cell lines: HTB 161 (ovarian); conditions: HTB 161 ovarian tumor, PROTOCOL 1 and PROTOCOL 2, 48 hours
Procedure: as §16, §2, §3, §17, §5, §6, §7, §8, §9, §10, §11, §12, §13, §14, §18, §19, §20

CACO2 = experiment: Antiproliferative activity in human tumor cell lines: CACO2 (colon); conditions: Homo sapiens
Procedure: as §1, §2, §3, §4, §5, §6, §7, §8, §9, §10, §11, §12, §13, §14, §15

A2780S = experiment: Antiproliferative activity in human tumor cell lines: A2780S (ovarian); conditions: PROTOCOL 1 and PROTOCOL 2, 48 hours
Procedure: as §16, §2, §3, §17, §5, §6, §7, §8, §9, §10, §11, §12, §13, §14, §18, §19, §20

[1] = tested on: Adult Bovine Aortic Endothelial (ABAE) cell line; experiment: Antiproliferative activity in ABAE cell line, PROTOCOL 3 (4 day assay)
Procedure: as §1, §2
Antiproliferative Activity in Adult Bovine Aortic Endothelial (ABAE) Cell Line
ABAE cells are grown in DMEMmedia (Mediatech, Washington, D.C.) supplemented with 10% calf serum (Hyclone). ABAE cells are plated in 24-well dishes at 8,000 cells/well, followed by the addition of increasing concentrations of 7-(hydrogen or di(C1 -C4)alkylamino)-8-halogen-9-(substituted)-6-demethyl-6-deoxytetracycline. After four days, the cells are detached and counted. […] The growth inhibition (I) as % of control is calculated as follows: [formula] wherein: Nc is the number of cells in untreated wells;
Nt is the number of cells in treated wells;
No is the number of plated cells.
IC50 of growth inhibition is determined from the sets of I values plotted by Kaleidograph software (Abelbeck Software).
In addition FIG. 1, presents the dose response curve for the compound of Example 10 for the above ABAE cell line obtained by using PROTOCOL 3.

[2] = Caco-2, CACO2 colon tumor, PROTOCOL 1 and PROTOCOL 2, 48 hours, read-out: IC50

Row | Structure (SMILES) | IC50 (Human Tumor cell lines) [µg/mL] | IC50 (A2780/DDP) [µg/mL] | IC50 (HTB 161) [µg/mL] | IC50 (CACO2; [2]) [µg/mL] | IC50 (A2780S) [µg/mL] | inhibition of cell growth at the highest concentrations (Human Tumor cell lines; FIG. 2, 6 Human Tumor cell lines, highest concentrations) | Dead floating cells (Human Tumor cell lines; at the highest concentration) | IC50 (CACO2; Caco-2, 48 h) [µg/mL] | activity upon incubation with cells ([1]; 4 day assay (PROTOCOL 3)) | IC50 ([1]; Bos taurus, 96 h, PROTOCOL 3, 4 day assay, read-out: inhibits 50% of cell growth) [µg/mL]
1 | CN(C)CC(=O)Nc1c(Cl)cc2c(c1O)C(=O)C1=C(O)[C@]3(O)C(=O)C(C(N)=O)=C(O)[C@@H](N(C)C)C3CC1C2 (stereo partly drawn) [Example 3, [4S-(45, 12aα)]-8-Chloro-4-(dimethylamino)-9[[(dimethylamino)acetyl]amino]-1,4,4a,5,5a,6,11,12a-octahydro-3,10,12,12a-tetrahydroxy-1,11-dioxo-2-naphthacenecarboxamide disulfate] | 1.9 | 2.5 | 1 | 1.65 | 1.8 | – | – | – | – | –
2 | CN(C)[C@@H]1C(O)=C(C(N)=O)C(=O)[C@@]2(O)C(O)=C3C(=O)c4c(cc(Cl)c(NC(=O)CNCC5CC5)c4O)CC3CC12 (stereo partly drawn) [Example 8, [4S-(4α,12aα)]-8-Chloro-9-[[(cyclopropylmethylamino)-acetyl]amino]4-(dimethylamino)-1,4,4a,5,5a,6,11,12a-octahydro-3,10,12,12a-tetrahydroxy-1,11-dioxo-2-naphthacenecarboxamide dihydrochloride] | 2.45 | 2.5 | 1 | 2.8 | 2.2 | – | – | – | – | –
3 | CCCNCC(=O)Nc1c(Cl)cc2c(c1O)C(=O)C1=C(O)[C@]3(O)C(=O)C(C(N)=O)=C(O)[C@@H](N(C)C)C3CC1C2 (stereo partly drawn) [Example 5, [4S-(4α, 12aα)]-8-Chloro-4-(dimethylamino)-1,4,4a,5,5a, 6,11,12a-octahydro-3,10,12,12a-tetrahydroxy-1,11-dioxo-9-[[(propylamino)acetyl]amino]-2-naphthacenecarboxamide dihydrochloride] | 4.6 | 3 | 4 | – | 3 | no 100% inhibition of cell growth | not observed | 4 | – | –
4 | CCCCNCC(=O)Nc1c(Cl)cc2c(c1O)C(=O)C1=C(O)[C@]3(O)C(=O)C(C(N)=O)=C(O)[C@@H](N(C)C)C3CC1C2 (stereo partly drawn) [Example 4, [4S-(4α, 12aα)]-9-[[(Butylamino)acetyl]amino]-8-chloro-4-(dimethylamino) -1,4,4a,5,5a,6,11,12a-octahydro-3,10,12,12a-tetrahydroxy-1,11-dioxo-2-naphthacenecarboxamide dihydrochloride] | 2.5 | 2.8 | 1.2 | 2.5 | 2.5 | – | – | – | – | –
5 | CN(C)c1c(Cl)cc(O)c2c1CC1CC3[C@H](N(C)C)C(O)=C(C(N)=O)C(=O)[C@@]3(O)C(O)=C1C2=O (stereo partly drawn) [Example 11, [4S-(4α,12aα)]-8-Chloro-4,7-bis(dimethylamino)-1,4,4a,5,5a,6,11,12a-octahydro-3,10,12,12a-tetrahydroxy-1,11-dioxo-2-naphthacenecarboxamide sulfate] | 2.8 | 3.85 | 0.7 | 3.6 | 1.6 | – | – | – | – | –
6 | CN(C)[C@@H]1C(O)=C(C(N)=O)C(=O)[C@@]2(O)C(O)=C3C(=O)c4c(cc(Cl)c(NC(=O)CN5CCCCC5)c4O)CC3CC12 (stereo partly drawn) [Example 10, 7S-(7α,10aα)]-N-[9-(Aminocarbonyl)-3-chloro-7-(dimethylamino)-5,5a,6,6a,7,10,10a,12-octahydro-1,8,10a,11-tetrahydroxy-10,12-dioxo-2-naphthacenyl]-1-piperidineacetamide dihydrochloride] | 0.6 | 0.6 | 0.6 | 0.65 | 0.5 | – | – | – | retains its activity | ~0.4
7 | CNCC(=O)Nc1c(Cl)cc2c(c1O)C(=O)C1=C(O)[C@]3(O)C(=O)C(C(N)=O)=C(O)[C@@H](N(C)C)C3CC1C2 (stereo partly drawn) [Example 7, [4S-(4α, 12aα)]-8-Chloro-4-(dimethylamino)-1,4,4a,5,5a,6,11,12a-octahydro-3,10,12,12a-tetrahydroxy-1,11-dioxo-9-[[(methylamino)acetyl]amino]-2-naphthacenecarboxamide dihydrochloride] | 4.3 | 3.8 | 1.3 | 3.8 | 4.6 | – | – | – | – | –
8 | CN(C)[C@@H]1C(O)=C(C(N)=O)C(=O)[C@@]2(O)C(O)=C3C(=O)c4c(cc(Cl)c(NC(=O)CN5CCCC5)c4O)CC3CC12 (stereo partly drawn) [Example 9, [7S-(7α,10aα)]-N-[9-(Aminocarbonyl)-3-chloro-7-(dimethylamino)-5,5a,6,6a,7,10,10a,12-octahydro-1,8,10a,11-tetrahydroxy-10,12-dioxo-2-naphthacenyl]-1-pyrrolidineacetamide dihydrochloride] | 1.45 | 1 | 1.9 | 1.7 | 1.3 | – | – | – | – | –
9 | CCCCCNCC(=O)Nc1c(Cl)cc2c(c1O)C(=O)C1=C(O)[C@]3(O)C(=O)C(C(N)=O)=C(O)[C@@H](N(C)C)C3CC1C2 (stereo partly drawn) [Example 6, [4S-(4α, 12aα)]-8-Chloro-4-(dimethylamino)-1,4,4a,5,5a,6,11,12a-octahydro-3,10,12,12a-tetrahydroxy-1,11-dioxo-9-[[(pentylamino)acetyl]amino]-2-naphthacenecarboxamide dihydrochloride] | 0.8 | 0.7 | 0.5 | 0.7 | 0.5 | – | – | – | – | –
